In PubChem BioAssay (NCI):
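Test compounds were applied to cells in 96-well plates for 48 hours at 5 doses. TGI: concentration producing complete growth inhibition.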

Legend:
Assay in all cases: NCI-60 cell line screen, 48 h
786-0 renal = tested on: 786-0 renal
A498 renal = tested on: A498 renal
A549 NSCLC = tested on: A549 NSCLC
ACHN renal = tested on: ACHN renal
BT-549 breast = tested on: BT-549 breast
CAKI-1 renal = tested on: CAKI-1 renal
CCRF-CEM leukemia = tested on: CCRF-CEM leukemia
COLO 205 colon = tested on: COLO 205 colon
DU-145 prostate = tested on: DU-145 prostate
HCC-2998 colon = tested on: HCC-2998 colon
HCT-116 colon = tested on: HCT-116 colon
HCT-15 colon = tested on: HCT-15 colon
HL-60(TB) leukemia = tested on: HL-60(TB) leukemia
HOP-62 NSCLC = tested on: HOP-62 NSCLC
HS 578T breast = tested on: HS 578T breast
HT29 colon = tested on: HT29 colon
IGROV1 ovarian = tested on: IGROV1 ovarian
K-562 leukemia = tested on: K-562 leukemia
KM12 colon = tested on: KM12 colon
M14 melanoma = tested on: M14 melanoma
MALME-3M melanoma = tested on: MALME-3M melanoma
MCF7 breast = tested on: MCF7 breast
MDA-MB-231 breast = tested on: MDA-MB-231 breast
MDA-MB-435 = tested on: MDA-MB-435
MDA-N = tested on: MDA-N
MOLT-4 leukemia = tested on: MOLT-4 leukemia
NCI-H226 lung = tested on: NCI-H226 lung
NCI-H23 lung = tested on: NCI-H23 lung
NCI-H460 lung = tested on: NCI-H460 lung
NCI-H522 lung = tested on: NCI-H522 lung
NCI/ADR-RES ovarian = tested on: NCI/ADR-RES ovarian
OVCAR-3 ovarian = tested on: OVCAR-3 ovarian
OVCAR-5 ovarian = tested on: OVCAR-5 ovarian
OVCAR-8 ovarian = tested on: OVCAR-8 ovarian
PC-3 prostate = tested on: PC-3 prostate
SF-268 CNS = tested on: SF-268 CNS
SF-295 CNS = tested on: SF-295 CNS
SF-539 CNS = tested on: SF-539 CNS
SK-MEL-2 melanoma = tested on: SK-MEL-2 melanoma
SK-MEL-28 melanoma = tested on: SK-MEL-28 melanoma
SK-MEL-5 melanoma = tested on: SK-MEL-5 melanoma
SK-OV-3 ovarian = tested on: SK-OV-3 ovarian
SN12C renal = tested on: SN12C renal
SNB-19 CNS = tested on: SNB-19 CNS
SNB-75 CNS = tested on: SNB-75 CNS
SR leukemia = tested on: SR leukemia
SW-620 colon = tested on: SW-620 colon
T-47D breast = tested on: T-47D breast
TK-10 renal = tested on: TK-10 renal
U251 CNS = tested on: U251 CNS
UACC-257 melanoma = tested on: UACC-257 melanoma
UACC-62 melanoma = tested on: UACC-62 melanoma
UO-31 renal = tested on: UO-31 renal
EKVX NSCLC = tested on: EKVX NSCLC
LOX IMVI melanoma = tested on: LOX IMVI melanoma
OVCAR-4 ovarian = tested on: OVCAR-4 ovarian
RPMI-8226 leukemia = tested on: RPMI-8226 leukemia
RXF 393 renal = tested on: RXF 393 renal

## CN(C)CCNC(=O)c1cccc2c1Oc1cccc([N+](=O)[O-])c1O2
786-0 renal
  TGI: 42.6 µM
A498 renal
  TGI: 30.5 µM
A549 NSCLC
  TGI: 35.9 µM
ACHN renal
  TGI: 37.5 µM
BT-549 breast
  TGI: 33.6 µM
CAKI-1 renal
  TGI: 33.7 µM
CCRF-CEM leukemia
  TGI: 89.8 µM
COLO 205 colon
  TGI: 36 µM
DU-145 prostate
  TGI: 31.5 µM
HCC-2998 colon
  TGI: 56.1 µM
HCT-116 colon
  TGI: 30.6 µM
HCT-15 colon
  TGI: > 100 µM
HL-60(TB) leukemia
  TGI: 51.7 µM
HOP-62 NSCLC
  TGI: 30.6 µM
HS 578T breast
  TGI: 40.2 µM
HT29 colon
  TGI: 33.5 µM
IGROV1 ovarian
  TGI: 34.1 µM
K-562 leukemia
  TGI: 45.5 µM
KM12 colon
  TGI: 44.7 µM
M14 melanoma
  TGI: 30 µM
MALME-3M melanoma
  TGI: 28.1 µM
MCF7 breast
  TGI: 40.6 µM
MDA-MB-231 breast
  TGI: 20.5 µM
MDA-MB-435
  TGI: 32.6 µM
MDA-N
  TGI: 31.6 µM
MOLT-4 leukemia
  TGI: 27.1 µM
NCI-H226 lung
  TGI: 27.9 µM
NCI-H23 lung
  TGI: 72.8 µM
NCI-H460 lung
  TGI: 35.4 µM
NCI-H522 lung
  TGI: 32.9 µM
NCI/ADR-RES ovarian
  TGI: 56.7 µM
OVCAR-3 ovarian
  TGI: 49.7 µM
OVCAR-5 ovarian
  TGI: 39.5 µM
OVCAR-8 ovarian
  TGI: 50 µM
PC-3 prostate
  TGI: 29.8 µM
SF-268 CNS
  TGI: 42.7 µM
SF-295 CNS
  TGI: 36.7 µM
SF-539 CNS
  TGI: 40.1 µM
SK-MEL-2 melanoma
  TGI: 49.3 µM
SK-MEL-28 melanoma
  TGI: 38.9 µM
SK-MEL-5 melanoma
  TGI: 33.2 µM
SK-OV-3 ovarian
  TGI: 37.4 µM
SN12C renal
  TGI: > 100 µM
SNB-19 CNS
  TGI: > 100 µM
SNB-75 CNS
  TGI: 40.5 µM
SR leukemia
  TGI: 76.1 µM
SW-620 colon
  TGI: 46.2 µM
T-47D breast
  TGI: 27.9 µM
TK-10 renal
  TGI: > 100 µM
U251 CNS
  TGI: 42.8 µM
UACC-257 melanoma
  TGI: 35.5 µM
UACC-62 melanoma
  TGI: 33 µM
UO-31 renal
  TGI: 32.5 µM

## Cc1c(NC(=O)CSC(=S)N(C)C)c(=O)n(-c2ccccc2)n1C
786-0 renal
  TGI: > 100 µM
A549 NSCLC
  TGI: > 100 µM
ACHN renal
  TGI: > 100 µM
BT-549 breast
  TGI: > 100 µM
CAKI-1 renal
  TGI: > 100 µM
CCRF-CEM leukemia
  TGI: > 100 µM
COLO 205 colon
  TGI: > 100 µM
DU-145 prostate
  TGI: > 100 µM
EKVX NSCLC
  TGI: > 100 µM
HCC-2998 colon
  TGI: > 100 µM
HCT-116 colon
  TGI: > 100 µM
HCT-15 colon
  TGI: > 100 µM
HOP-62 NSCLC
  TGI: > 100 µM
HS 578T breast
  TGI: > 100 µM
HT29 colon
  TGI: > 100 µM
IGROV1 ovarian
  TGI: > 100 µM
K-562 leukemia
  TGI: > 100 µM
KM12 colon
  TGI: > 100 µM
LOX IMVI melanoma
  TGI: > 100 µM
M14 melanoma
  TGI: > 100 µM
MALME-3M melanoma
  TGI: > 100 µM
MCF7 breast
  TGI: > 100 µM
MDA-MB-231 breast
  TGI: > 100 µM
MDA-MB-435
  TGI: > 100 µM
MDA-N
  TGI: > 100 µM
MOLT-4 leukemia
  TGI: > 100 µM
NCI-H226 lung
  TGI: > 100 µM
NCI-H23 lung
  TGI: > 100 µM
NCI-H460 lung
  TGI: > 100 µM
NCI-H522 lung
  TGI: > 100 µM
NCI/ADR-RES ovarian
  TGI: > 100 µM
OVCAR-3 ovarian
  TGI: > 100 µM
OVCAR-4 ovarian
  TGI: > 100 µM
OVCAR-5 ovarian
  TGI: > 100 µM
OVCAR-8 ovarian
  TGI: > 100 µM
PC-3 prostate
  TGI: > 100 µM
RPMI-8226 leukemia
  TGI: > 100 µM
RXF 393 renal
  TGI: > 100 µM
SF-268 CNS
  TGI: > 100 µM
SF-295 CNS
  TGI: > 100 µM
SF-539 CNS
  TGI: > 100 µM
SK-MEL-2 melanoma
  TGI: > 100 µM
SK-MEL-28 melanoma
  TGI: > 100 µM
SK-MEL-5 melanoma
  TGI: > 100 µM
SK-OV-3 ovarian
  TGI: > 100 µM
SN12C renal
  TGI: > 100 µM
SNB-19 CNS
  TGI: > 100 µM
SNB-75 CNS
  TGI: > 100 µM
SR leukemia
  TGI: > 100 µM
SW-620 colon
  TGI: > 100 µM
T-47D breast
  TGI: > 100 µM
TK-10 renal
  TGI: > 100 µM
U251 CNS
  TGI: > 100 µM
UACC-257 melanoma
  TGI: > 100 µM
UO-31 renal
  TGI: > 100 µM
